Like-named read-outs stand apart in the source and are kept apart here.
Key:
COLO 205 cells = assay: MTS cytotoxicity test with COLO 205 cells; assay type: cell-based, human; settings: 3 days
In short: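 COLO 205 human colon carcinoma cells, 1000 per well, exposed 3 days at 37° C to nine 2-fold dilutions, typical final top concentration 5 μM. MTS absorbance normalized to time-0 plate; IC50 is concentration giving colour yield midway between untreated and fully killed controls.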

HL-60 cells = assay: MTS cytotoxicity test with HL-60 cells; assay type: cell-based; settings: Homo sapiens
From the text: Human cancer cell lines, unless otherwise noted, are obtained from the American Type Culture Collection (Rockville, Md.). The following drug-sensitive parental cell lines, and their derived drug-resistant counterparts, are obtained from the originators as listed: (a) S1 (parental line from a subclone of human colon carcinoma line LS174T) and derived S1-M1-3.2 (herein called S1-M1) which expresses the MXR drug transporter protein, are provided by Dr. L. Greenberger, Wyeth Research (Rabindran, S. K., He, H., Singh, M., Brown, E., Collins, K. I., Annable, T., and Greenberger, L. M. Reversal of a novel multidrug resistance mechanism in human colon carcinoma cells by fumitremorgin C. Cancer Res., 58:5850-5858,1998); (b) parental HL-60 human promyelocytic leukemia line and derived HL-60/ADR, which expresses the MRP1 drug transporter protein, are provided by Dr. M. Center, University of Kansas (McGrath, T., and Center, M. S. Adriamycin resistance in HL60 cells in the absence of detectable P-glycoprotein. Biochem. Biophys. […] J. Biol. Chem., 261: 7762-7770,1986) via Dr. L. Greenberger, Wyeth Research.
The assay, which is sold in kit form by Promega (Madison, Wis.; CellTiter 96 AQueous Non-Radioactive Cell Proliferation Assay), is based on the conversion by viable cells, but not by dead cells, of the tetrazolium salt, MTS (3-(4,5-dimethylthiazol-2-yl)-5-(3-carboxymethoxyphenyl)-2-(4-sulphophenyl)-2H-tetrazolium, inner salt), into a water-soluble colored formazan which is detected by spectrophotometry. Compounds are tested at nine concentrations, in order to determine IC50 values. For the test procedure, cells are harvested by trypsinization (or, in the case of non-adherent cells, by simple resuspension), washed, counted and distributed to wells of 96-well flat-bottom microtiter plates at 1000 cells per well in 200 μL of medium. In addition, one row of wells on a separate plate received cells as above (“time 0” plate). All plates are incubated at 37° in humidified 5% CO2 in air for about 24 hr.
On day 2, compounds for test are diluted and added to wells. Compounds are dissolved in DMSO at 10 mg/mL. For each compound, nine serial 2-fold dilutions are prepared in DMSO. Ten μL of each dilution in DMSO is transferred to 100 μL of medium, mixed well, and then 5 μL of this dilution is transferred in quadruplicate to wells containing cells. […] Plates are returned to the incubator for three days. At the time of drug addition to the experimental plates, the MTS assay is run on the “time 0” plate. This produced the “time 0 MTS value” which is related to the number of viable cells per well at the time of drug addition.
After three days of culture with test compounds (day 5 overall), the MTS assay is done on all wells of the experimental plates. The absorbance values of the quadruplicate sample wells are averaged and divided by the average of the “time 0” values. […] The nine values for each compound are plotted against concentration, and the concentration that produced a relative color yield half way between the maximum and minimum is taken as the IC50 value.
HL-60/ADR cells overexpress the multidrug resistance protein MRP1 which mediates resistance to some chemotherapeutics (Gottesman, M. M., Fojo, T., and Bates, S. E. Multidrug resistance in cancer: role of ATP-dependent transporters. Nature Rev. Cancer, 2: 48-58, 2002). The IC50 values of representative examples of this invention, as well as reference compounds, on HL-60/ADR are compared to values on the sensitive parental HL-60 line.

tubulin heterodimer = assay: Competitive binding test, [3H]vinblastine; parameters: species or system bovine; settings: [3H]vinblastine 100 nM
Description: Medium is RPMI-1640 with L-glutamine, supplemented with 10% heat-inactivated fetal calf serum, 100 units/ml penicillin, and 100 μg/ml streptomycin (Gibco, Grand Island, N.Y.). Microtubule-associated protein (MAP)-rich tubulin, containing about 70% tubulin and 30% MAPs (#ML113), and highly purified tubulin (>99% pure, #TL238), both from bovine brain, are obtained from Cytoskeleton, Inc., Denver, Colo. PEM buffer (80 mM piperazine-N,N′-bis[2-ethanesulfonic acid], pH 6.9, 1 mM ethylene glycol-bis(β-aminoethyl ether)-N,N,N′,N′-tetraacetic acid, 1 mM magnesium chloride) and guanosine 5′-triphosphate (GTP) are also obtained from Cytoskeleton. [3H]paclitaxel, specific activity 14.7 Ci/mmol, is purchased from Moravek Biochemicals (Brea, Calif.). [^3H]vinblastine, specific activity 9.60 Ci/mmol and MicroSpin G-50 columns are obtained from Amersham Biosciences (Piscataway, N.J.). […] Other reagents are obtained from Sigma (St. Louis, Mo.).
The binding of examples of this invention to highly purified tubulin is studied by competitive inhibition methods. […] To study possible competition at the taxane site, on the other hand, polymerized tubulin (microtubules) is used because paclitaxel binds preferentially to microtubules.
Highly purified tubulin is dissolved in PEM buffer without GTP and used at a final concentration of 1.0 to 1.3 mg/ml (10 to 13 μM). […] These solutions are incubated at 24° for 1 hr and then applied to MicroSpin G-50 columns which are centrifuged for 2 min at 3000 rpm in an Eppendorf 5415C microfuge. An aliquot of each column effluent (containing tubulin and bound radioligand) is mixed with scintillation fluid and counted in a liquid scintillation spectrometer. […] The ability of the competitor to inhibit the binding of the radioligand is expressed as a percentage of control binding in the absence of any competitor.

[1] = HL-60 cells, MTS, read-out: IC50 HL-60

Compound	IC50 (COLO 205 cells; Homo sapiens, COLO 205, 72 h)	IC50 (HL-60 cells; [1])	[3H]Vinblastine binding, percent of control without competitor, Mean (tubulin heterodimer)	IC50 (COLO 205 cells)	IC50 (HL-60 cells; HL-60, read-out: IC50 HL-60)
C[C@H](Nc1c(-c2c(F)cc(OCCCN(C)C)cc2F)c(Cl)nc2ncnn12)C(F)(F)F.Cl [Example 1a, 5-chloro-6-{4-[3-(dimethylamino)propoxy]-2,6-difluorophenyl}-N-[(1S)-2,2,2-trifluoro-1-methylethyl][1,2,4]triazolo[1,5-a]pyrimidin-7-amine hydrogen chloride Salt]	56 nM	71 nM	12%		
CNCCCOc1cc(F)c(-c2c(Cl)nc3ncnn3c2N[C@@H](C)C(F)(F)F)c(F)c1.Cl [Example 2a, 5-Chloro-6-{2,6-difluoro-4-[3-(methylamino)propoxy]phenyl}-N-[(1S)-2,2,2-trifluoro-1-methylethyl][1,2,4]triazolo[1,5-a]pyrimidin-7-amine hydrogen chloride]			11%	31 nM	43 nM
CNCCCOc1cc(F)c(-c2c(Cl)nc3ncnn3c2NCC(F)(F)F)c(F)c1.Cl [Example 3a, 5-Chloro-6-{2,6-difluoro-4-[3-(methylamino)propoxy]phenyl}-N-(2,2,2-trifluoroethyl)[1,2,4]triazolo[1,5-a]pyrimidin-7-amine hydrogen chloride Salt]		26 nM	11%	29 nM	
CN(C)CCCOc1cc(F)c(-c2c(Cl)nc3ncnn3c2NCC(F)(F)F)c(F)c1.Cl [Example 4a, 5-Chloro-6-{4-[3-(dimethylamino)propoxy]-2,6-difluorophenyl}-N-(2,2,2-trifluoroethyl)[1,2,4]triazolo[1,5-a]pyrimidin-7-amine Hydrogen chloride Salt]	53 nM	52 nM	15%		
C[C@H](Nc1c(-c2c(F)cc(OCCCO)cc2F)c(Cl)nc2ncnn12)C(F)(F)F [Example 20, 3-[4-(5-Chloro-7-{[(1S)-2,2,2-trifluoro-1-methylethyl]amino}[1,2,4]triazolo[1,5-a]pyrimidin-6-yl)-3,5-difluorophenoxy]propan-1-ol]	67 nM	155 nM	19%		
C[C@H](Nc1c(-c2c(F)cc(OCCCN(C)C)cc2F)c(Br)nc2ncnn12)C(F)(F)F [Example 25, 5-Bromo-6-{4-[3-(dimethylamino)propoxy]-2,6-difluorophenyl}-N-[(1S)-2,2,2-trifluoro-1-methylethyl][1,2,4]triazolo[1,5-a]pyrimidin-7-amine]	96 nM	104 nM	14%		
OCCCOc1cc(F)c(-c2c(Cl)nc3ncnn3c2C2CCCCCC2)c(F)c1 [Example 30, 3-[4-(5-Chloro-7-cycloheptyl[1,2,4]triazolo[1,5-a]pyrimidin-6-yl)-3,5-difluorophenoxy]propan-1-ol]	30 nM	55 nM	14%		
CNCCCOc1cc(F)c(-c2c(Cl)nc3ncnn3c2C2CCCCCC2)c(F)c1.O=C(O)C(F)(F)F [Example 32, 3-[4-(5-Chloro-7-cycloheptyl[1,2,4]triazolo[1,5-a]pyrimidin-6-yl)-3,5-difluorophenoxy]-N-methylpropan-1-amine trifluoroacetic acid salt]	6.6 nM	7.1 nM	15%		
CC(=O)O[C@H]1C(=O)[C@@]2(C)[C@H]([C@H](OC(=O)c3ccccc3)[C@]3(O)C[C@H](OC(=O)[C@H](O)[C@@H](NC(=O)c4ccccc4)c4ccccc4)C(C)=C1C3(C)C)[C@]1(OC(C)=O)CO[C@@H]1C[C@@H]2O [Paclitaxel, reference compound]	3.3 nM	5.7 nM	92%		
CC[C@]1(O)C[C@H]2CN(CCc3c([nH]c4ccccc34)[C@@](C(=O)OC)(c3cc4c(cc3OC)N(C=O)[C@H]3[C@@](O)(C(=O)OC)[C@H](OC(C)=O)[C@]5(CC)C=CCN6CC[C@]43[C@@H]65)C2)C1 [Vincristine, reference compound]	2.6 nM	2.5 nM	5%		
